Drawing on ChEMBL document CHEMBL3714742, “Pyrimido (4,5-b) indole derivatives” (2003), this text covers IC50 and inhibition for 35 compounds.

Activity calls are given as the source filed them. How the calls were made is not given here. Where only a bound is given, the exact number is not on record here.

By IC50 is commonly meant the midpoint of a concentration-inhibition curve. Read a low IC50 as higher potency.

In experiment [1] the target is T1, Dual specificity mitogen-activated protein kinase kinase 7 (Homo sapiens, UniProt O14733).
T1 sequence (O14733 whole entry): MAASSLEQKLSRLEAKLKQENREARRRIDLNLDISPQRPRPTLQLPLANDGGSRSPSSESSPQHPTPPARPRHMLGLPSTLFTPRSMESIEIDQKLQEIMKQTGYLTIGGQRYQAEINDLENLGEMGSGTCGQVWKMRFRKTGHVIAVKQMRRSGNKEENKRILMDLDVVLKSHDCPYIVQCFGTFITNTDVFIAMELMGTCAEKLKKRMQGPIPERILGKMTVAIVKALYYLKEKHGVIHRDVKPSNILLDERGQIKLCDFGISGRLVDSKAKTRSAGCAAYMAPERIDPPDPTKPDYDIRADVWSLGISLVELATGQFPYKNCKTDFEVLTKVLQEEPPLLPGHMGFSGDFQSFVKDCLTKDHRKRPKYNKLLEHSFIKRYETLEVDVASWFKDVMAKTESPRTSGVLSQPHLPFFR
The experiment is described as follows: Inhibition of GST-tagged human MKK7 expressed in Escherichia coli (BL21(DE3) pLysS) co-expressing human MEKK catalytic domain using biotinylated and GST-tagged rat GST-KN-SAPKalpha substrate incubated for 1 hr by time-resolved fluorescence based assay.

The test system of experiment [2] is Mus musculus. The experiment is described as follows: Inhibition of anti-CD3 antibody-induced IL2 production in Balb/c mouse dosed intravenously 5 mins before anti-CD3 antibody injection and measured 2 hrs post-challenge by ELISA. It counts as functional, organism-based. In general terms: An ELISA detects its analyte on a solid surface through an enzyme-linked reagent.

In experiment [3] the test system is Mus musculus. The experiment is described as follows: Inhibition of anti-CD3 antibody-induced IL4 production in Balb/c mouse dosed intravenously 5 mins before anti-CD3 antibody injection and measured 2 hrs post-challenge by ELISA. It counts as functional, organism-based.
Experiment [4] relates to Mus musculus. The experiment is described as follows: Inhibition of anti-CD3 antibody-induced IFNgamma production in Balb/c mouse dosed intravenously 5 mins before anti-CD3 antibody injection and measured 2 hrs post-challenge by ELISA. The format is functional, organism-based.
The target in experiment [5] is T2, Dual specificity mitogen-activated protein kinase kinase 4 (Homo sapiens, UniProt P45985).
T2 sequence (P45985 whole entry): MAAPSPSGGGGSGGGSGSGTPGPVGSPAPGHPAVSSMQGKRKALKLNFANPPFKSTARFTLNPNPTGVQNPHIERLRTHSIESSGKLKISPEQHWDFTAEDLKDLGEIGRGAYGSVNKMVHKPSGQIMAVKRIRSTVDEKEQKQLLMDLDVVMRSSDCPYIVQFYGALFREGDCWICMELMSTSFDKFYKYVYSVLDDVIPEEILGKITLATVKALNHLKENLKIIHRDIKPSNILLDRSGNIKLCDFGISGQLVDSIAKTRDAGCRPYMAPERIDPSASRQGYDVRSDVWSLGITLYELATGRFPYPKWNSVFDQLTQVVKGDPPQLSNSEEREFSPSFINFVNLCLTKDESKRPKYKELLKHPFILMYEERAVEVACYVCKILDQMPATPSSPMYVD
The experiment can be described thus: Inhibition of GST-tagged human MKK4 expressed in Escherichia coli (BL21(DE3) pLysS) co-expressing human MEKK catalytic domain using biotinylated and GST-tagged rat GST-KN-SAPKalpha substrate incubated for 2 hrs by time-resolved fluorescence based assay.

Regarding `Nc1nc(N2CCCCCC2)c2c(n1)[nH]c1ccc(O)cc12`, the IC50 in experiment [1] and in experiment [5] was < 1000 nM throughout. Also, the inhibition result in the experiment on Mus musculus [2], with Mus musculus [3] and in the experiment with Mus musculus [4] was “Active” in each case.
For `Cc1nc(N2CCCCC2)c2c(n1)[nH]c1ccc(C(=O)O)cc12`, the IC50 in experiment [1] and in experiment [5] was < 1000 nM in each case. For the same compound, the inhibition entry with Mus musculus [2], in the experiment with Mus musculus [3] and in the experiment with Mus musculus [4] was “Active” each time.
Consider `Cc1nc(NC(C)CO)c2c(n1)[nH]c1ccc(O)cc12` (stereo not drawn), for which the IC50 in experiment [1] and in experiment [5] was < 1000 nM throughout. In addition, the inhibition result with Mus musculus [2], in the experiment with Mus musculus [3] and in the experiment on Mus musculus [4] was “Active” each time.
For `NCCNc1ncnc2[nH]c3ccc(O)cc3c12`, the IC50 in experiment [1] is < 1000 nM. The inhibition entry in the experiment with Mus musculus [2], in the experiment on Mus musculus [3] and in the experiment with Mus musculus [4] was “Active” in each case.
As to `NC(=O)c1ccc2[nH]c3ncnc(N4CCCCCC4)c3c2c1`, the 50% inhibitory concentration (IC50) in experiment [1] was < 1000 nM. Also, the inhibition entry in the experiment with Mus musculus [2], in the experiment with Mus musculus [3] and in the experiment with Mus musculus [4] was “Active” in each case.
On to `NC(=O)c1ccc2[nH]c3ncnc(N4CCCC(N)C4)c3c2c1` (stereo not drawn), for which the IC50 in experiment [1] was < 1000 nM. The inhibition entry with Mus musculus [2], in the experiment with Mus musculus [3] and in the experiment with Mus musculus [4] was “Active” in each case.
For the compound `CC1CC(C)CN(c2ncnc3[nH]c4ccc(O)cc4c23)C1` (stereo not drawn), inhibition in experiment [1] was half-maximal at 1000 nM (IC50). In addition, the inhibition result in the experiment with Mus musculus [2], with Mus musculus [3] and in the experiment with Mus musculus [4] was “Active” throughout.
Turning to `Oc1ccc2[nH]c3ncnc(N4CCOCC4)c3c2c1`, in experiment [1], the IC50 is < 1000 nM. In addition, the inhibition entry in the experiment with Mus musculus [2], with Mus musculus [3] and with Mus musculus [4] was “Active” throughout.
`CN(CCO)c1ncnc2[nH]c3ccc(C(N)=O)cc3c12`: the IC50 in experiment [1] was < 1000 nM. In addition, the inhibition result in the experiment with Mus musculus [2], in the experiment on Mus musculus [3] and in the experiment with Mus musculus [4] was “Active” throughout.
As to `OCCC1CCCCN1c1ncnc2[nH]c3ccc(O)cc3c12` (stereo not drawn), the IC50 in experiment [1] is < 1000 nM. The inhibition result in the experiment with Mus musculus [2], in the experiment on Mus musculus [3] and with Mus musculus [4] was “Active” in each case.
In experiment [1], `Cc1nc(N2CCCC(C)C2)c2c(n1)[nH]c1ccc(O)cc12` (stereo not drawn) displayed an IC50 of 1000 nM. Further, the inhibition entry in the experiment with Mus musculus [2], in the experiment on Mus musculus [3] and in the experiment on Mus musculus [4] was “Active” in each case.
As for `Oc1ccc2[nH]c3ncnc(NC4CCCC4)c3c2c1`, the IC50 in experiment [1] is < 1000 nM. The inhibition result in the experiment on Mus musculus [2], in the experiment on Mus musculus [3] and in the experiment with Mus musculus [4] was “Active” throughout.
On to `NC(=O)c1ccc2[nH]c3ncnc(N4CCCC(O)C4)c3c2c1` (stereo not drawn), for which the IC50 in experiment [1] was < 1000 nM. The inhibition entry in the experiment with Mus musculus [2], in the experiment on Mus musculus [3] and in the experiment on Mus musculus [4] was “Active” in each case.
On to `CCN(CCO)c1ncnc2[nH]c3ccc(O)cc3c12`, for which the IC50 in experiment [1] is < 1000 nM. The inhibition result in the experiment on Mus musculus [2], with Mus musculus [3] and in the experiment on Mus musculus [4] was “Active” in each case.
As to `CCC1CCCCN1c1ncnc2[nH]c3ccc(C(N)=O)cc3c12` (stereo not drawn), the IC50 in experiment [1] is < 1000 nM. Also, the inhibition entry in the experiment on Mus musculus [2], in the experiment on Mus musculus [3] and in the experiment with Mus musculus [4] was “Active” each time.
As to `Nc1nc(N2CCCCC2)c2c(n1)[nH]c1ccc(Cl)cc12`, the IC50 in experiment [1] was determined as 1000 nM. In addition, the inhibition result in the experiment on Mus musculus [2], in the experiment with Mus musculus [3] and in the experiment on Mus musculus [4] was “Active” each time.
On to `Oc1ccc2[nH]c3ncnc(NC4CCCCCC4)c3c2c1`, for which the IC50 in experiment [1] was < 1000 nM. Further, the inhibition result with Mus musculus [2], with Mus musculus [3] and in the experiment on Mus musculus [4] was “Active” throughout.
`NC(=O)c1ccc2[nH]c3ncnc(N4CCOCC4)c3c2c1`: the 50% inhibitory concentration (IC50) in experiment [1] is < 1000 nM. Also, the inhibition entry with Mus musculus [2], in the experiment on Mus musculus [3] and in the experiment with Mus musculus [4] was “Active” each time.
As to `NC1CCCN(c2ncnc3[nH]c4ccc(O)cc4c23)C1` (stereo not drawn), in experiment [1], the IC50 was < 1000 nM. Further, the inhibition entry in the experiment with Mus musculus [2], with Mus musculus [3] and with Mus musculus [4] was “Active” each time.
Turning to `Oc1ccc2[nH]c3ncnc(N4CCCCC4)c3c2c1`, the IC50 in experiment [1] is < 1000 nM. For the same compound, the inhibition entry in the experiment on Mus musculus [2], with Mus musculus [3] and with Mus musculus [4] was “Active” throughout.
With `Oc1ccc2[nH]c3ncnc(N4CCCC(O)C4)c3c2c1` (stereo not drawn), in experiment [1], the half-maximal inhibitory concentration (IC50) is < 1000 nM. Also, the inhibition result with Mus musculus [2], with Mus musculus [3] and in the experiment on Mus musculus [4] was “Active” in each case.
For the compound `NC(=O)c1ccc2[nH]c3ncnc(NC4CCCCCC4)c3c2c1`, the concentration for half-maximal inhibition (IC50) in experiment [1] is < 1000 nM. In addition, the inhibition result with Mus musculus [2], in the experiment on Mus musculus [3] and in the experiment on Mus musculus [4] was “Active” each time.
Regarding `Cc1nc(N2CCC(O)CC2)c2c(n1)[nH]c1ccc(O)cc12`, the IC50 in experiment [1] was < 1000 nM. The inhibition result with Mus musculus [2], in the experiment on Mus musculus [3] and in the experiment on Mus musculus [4] was “Active” throughout.
In the case of `OCCN(CCO)c1ncnc2[nH]c3ccc(O)cc3c12`, in experiment [1], the IC50 is < 1000 nM. For the same compound, the inhibition entry in the experiment with Mus musculus [2], in the experiment on Mus musculus [3] and with Mus musculus [4] was “Active” in each case.
Compound `Nc1nc(N2CCC(C(=O)O)CC2)c2c(n1)[nH]c1ccc(O)cc12` yielded an IC50 in experiment [1] of 1000 nM. For the same compound, the inhibition entry with Mus musculus [2], in the experiment on Mus musculus [3] and in the experiment with Mus musculus [4] was “Active” throughout.
As for `Nc1nc(NC2CCCCC2)c2c(n1)[nH]c1ccc(O)cc12`, the concentration for half-maximal inhibition (IC50) in experiment [1] is < 1000 nM. For the same compound, the inhibition entry in the experiment on Mus musculus [2], in the experiment on Mus musculus [3] and in the experiment on Mus musculus [4] was “Active” throughout.
For the compound `Cc1nc(N2CCCCCC2)c2c(n1)[nH]c1ccc(O)cc12`, the IC50 in experiment [1] is < 1000 nM. For the same compound, the inhibition entry in the experiment on Mus musculus [2], in the experiment on Mus musculus [3] and in the experiment on Mus musculus [4] was “Active” in each case.
For the compound `CNc1nc(C)nc2[nH]c3ccc(O)cc3c12`, the IC50 in experiment [1] came out at 1000 nM. Moreover, the inhibition entry in the experiment with Mus musculus [2], in the experiment with Mus musculus [3] and with Mus musculus [4] was “Active” each time.
As to `NC(=O)c1ccc2[nH]c3ncnc(N4CCC(O)(Cc5ccccc5)CC4)c3c2c1`, in experiment [1], the IC50 was < 1000 nM. Further, the inhibition result in the experiment with Mus musculus [2], in the experiment with Mus musculus [3] and in the experiment with Mus musculus [4] was “Active” in each case.
As for `Nc1nc(N2CCC3CCCCC3C2)c2c(n1)[nH]c1ccc(O)cc12` (stereo not drawn), the IC50 in experiment [1] is < 1000 nM. The inhibition entry in the experiment with Mus musculus [2], in the experiment with Mus musculus [3] and in the experiment with Mus musculus [4] was “Active” in each case.
Regarding `CC(C)(C)OC(=O)NC1CCN(c2ncnc3[nH]c4ccc(O)cc4c23)CC1`, the IC50 in experiment [1] was < 1000 nM. In addition, the inhibition result in the experiment on Mus musculus [2], in the experiment with Mus musculus [3] and with Mus musculus [4] was “Active” throughout.
Turning to `Nc1nc(N2CCCCC2)c2c(n1)[nH]c1ccc(O)cc12`, the half-maximal inhibitory concentration (IC50) in experiment [1] is < 1000 nM. Moreover, the inhibition entry in the experiment with Mus musculus [2], with Mus musculus [3] and with Mus musculus [4] was “Active” throughout.
`NC(=O)c1ccc2[nH]c3ncnc(N4CCC(CO)CC4)c3c2c1`: the IC50 in experiment [1] was < 1000 nM. Besides, the inhibition entry in the experiment with Mus musculus [2], with Mus musculus [3] and in the experiment on Mus musculus [4] was “Active” throughout.
Turning to `OCC1CCN(c2ncnc3[nH]c4ccc(O)cc4c23)CC1`, the IC50 in experiment [1] was < 1000 nM. Also, the inhibition result in the experiment with Mus musculus [2], in the experiment on Mus musculus [3] and in the experiment on Mus musculus [4] was “Active” in each case.
Consider `Oc1ccc2[nH]c3ncnc(N4CCCC4)c3c2c1`, for which the IC50 in experiment [1] was < 1000 nM. For the same compound, the inhibition entry in the experiment on Mus musculus [2], in the experiment with Mus musculus [3] and in the experiment on Mus musculus [4] was “Active” throughout.
